Data as given in article PMC12617972, “Inhibition of human cytomegalovirus replication by valaciclovir” (The Journal of General Virology, 2025).
Entries after “also recorded” stand apart in the source; their conditions may differ. Where two headings read alike, the source gives them in different places.

What was measured:
[1] = 2,000 mg/6 h; cited from earlier work
[2] = 2,000 mg dose; calculated with ChatGPT3 as Cmax × 1,000/molecular weight from commonly used literature Cmax values; cited from earlier work
[3] = tested on: HFFF cells; conditions: uninfected HFFF cells, 96 h, high and low cell numbers
[4] = tested on: HCMV; parameters: method as in PMID 32919517; conditions: high doses administered during pregnancy, clinical trial; cited from earlier work
[5] = tested on: SGHPL-4 cells; conditions: uninfected SGHPL-4 cells, 96 h, high and low cell numbers, 0.5% FBS
[6] = tested on: HCMV strain Merlin (R1111); assay: microbe, parasite or virus in culture; format: cell-based, human cytomegalovirus; conditions: for anti-HCMV activity in HFFF cells relative to other cell lines: HFFF cells vs HFF and SGHPL-4 cells; for EC50: read-out: 50% effective dose (EC50), anti-HCMV activity
[7] = tested on: HFF cells; conditions: uninfected HFF cells, 96 h, high and low cell numbers
[8] = tested on: HSV-1 strain 17+; assay: Virus yield assay, HSV in HFF cells; format: cell-based, herpes simplex virus; conditions: HFF (adult fibroblast) cells, MOI 1, 48 h post-infection
[9] = tested on: uninfected cell; parameters: method as in PMID 16492567; conditions: cited from earlier work
[10] = tested on: HCMV; conditions: previous studies; cited from earlier work
[11] = HFF, HFFF and SGHPL-4 cells, MOI 1, 96 h
[12] = Human betaherpesvirus 5, Fibroblast, 96 h

Compound	tolerability in patients [1]	plasma concentration [2] [µM]	effect on cell viability and cell division (MTT) [3]	inhibition of HCMV foetal infection [4]	effect on cell viability and cell division (MTT) [5]	anti-HCMV effects compared to GCV [6, 11]	inhibition of HCMV replication in each cell line ([6]; HFF, HFFF and SGHPL-4 cells, lower drug concentration, MOI 1, 96 h)	anti-HCMV activity in HFFF cells relative to other cell lines ([6]; MOI 1, 96 h)	EC50 ([6]; Human betaherpesvirus 5, HFF (adult fibroblast) cells, MOI 1, 96 h post-infection, virus yield) [nM]	effect on cell viability and cell division (MTT) [7]	50% effective dose (EC50), anti-HSV activity [8]	EC50 [6, 12] [nM]	effect on uninfected cell viability in vitro [9]	difference between GCV and ACV anti-HCMV effects in vitro [10]	difference between GCV and ACV inhibition of HCMV ([6]; found here, HFF cells)
CC(C)[C@H](N)C(=O)OCCOCn1cnc2c(=O)[nH]c(N)nc21 [VACV, valaciclovir]	well tolerated by patients, without toxicity	35 to 40	no obvious effect on cell viability	notable inhibition of HCMV foetal infection	no obvious effect on cell viability	less anti-HCMV effects compared to GCV	inhibitor of HCMV in all cell lines	less than in HFF and SGHPL-4 cells	3400	no obvious effect on cell viability					
Nc1nc2c(ncn2COCCO)c(=O)[nH]1 [ACV, aciclovir]						less anti-HCMV effects compared to GCV		less than in HFF and SGHPL-4 cells			well below micromolar concentrations	2700			
Nc1nc(O)c2ncn(COC(CO)CO)c2n1 [GCV, ganciclovir]											well below micromolar concentrations	500	little or no effect	approximately tenfold difference; also recorded: approximately tenfold greater	approximately fivefold difference
